Reference: paper PMC11724075, “Small-molecule-induced ERBB4 activation to treat heart failure” (Nature Communications, 2025)
Where “and” joins values, the source holds several entries; their conditions need not be identical. Equal values may be shown once.

What was measured:
ERBB1/ERBB1 = target: T1, ERBB1/ERBB1 (Homo sapiens, UniProt P00533); assay: PathHunter U2OS ERBB1/ERBB1 dimerization assay; format: cell-based; conditions: for ERBB1/ERBB1 dimerization signal: relative to signal with EGF, single biological replicates
T1 construct: host or cells: U2OS (osteosarcoma cells), PathHunter engineered line
Method: PathHunter U2OS ERBB4/ERBB4 (osteosarcoma cells; Eurofins, 93-0961C3), U2OS ERBB2/ERBB4 (osteosarcoma cells; Eurofins, 493-0960C3), ERBB2/ERBB3 (osteosarcoma cells; Eurofins, 93-1042C3) and ERBB1/ERBB1 (osteosarcoma cells; Eurofins, 93-0989C3) dimerization cell lines were cultured according to the manufacturer’s instructions. Briefly, cells were cultured in Cell Culture Reagent 103 (Eurofins, 92-3103 G) supplemented with 250 µg/mL Hygromycin B (Eurofins, 92-0029) and 500 µg/mL G418 (Eurofins, 92-0030), and were maintained at 37 °C in humidified atmosphere of 5% CO2. HCFs (Innoprot, P10454) were cultured in fibroblast medium (Innoprot, P60108) supplemented with 10% (v/v) fetal bovine serum (FBS, Innoprot), 10% (v/v) fibroblast growth supplement (Innoprot), and 1% (v/v) penicillin/streptomycin solution (Innoprot). iAMs[33] (kindly provided by LUMC) were cultured in Advanced DMEM F-12 (Thermo Fisher Scientific, 12634028) supplemented with 2% (v/v) heat-inactivated FBS (Thermo Fisher Scientific, 10270106), 1% (v/v) penicillin/streptomycin (10,000 units/mL and 10 mg/mL respectively, Thermo Fisher Scientific, 15140122), 1× GlutaMAX (Thermo Fisher Scientific, 35050061), and 100 ng/mL doxycycline (Tocris, 4090) for proliferation. To induce differentiation, iAMs were transferred to medium without doxycycline.
U2OS ERBB4/ERBB4 dimerization cells were seeded at a density of 5 × 10^4 cells/well in 100 µL Cell Plating 0 Reagent, in white 96-well plates (PerkinElmer, 6005680) and incubated for 24 h at 37 °C, 5% CO2. […] Next, 110 µL PathHunter Flash Detection Reagent was added to each well and incubated at RT for 1 h after which the luminescence signal was measured using the Luminoskan Ascent (Thermo Fisher Scientific). […] The same experimental set-up was used for the U2OS ERBB2/ERBB4, U2OS ERBB2/ERBB3 and U2OS ERBB1/ERBB1 dimerization cell lines.

[1] = test system: mouse model of DOX-induced acute cardiac toxicity; assay: Acute high-dose DOX-induced cardiotoxicity, cTnI ELISA, wild type mice; format: in vivo; design: In vivo DOX experiment in female wild type mice with EF-1 (cTnI) / In vivo DOX experiment in fmale wild type mice with EF-1 (cTnI): unit not given here
Method: DOX (20 mg/kg; Pfizer, 4222) was administered intraperitoneally once on day 4 to induce cardiotoxicity. On day 7, mice were euthanized, serum samples were collected via the retrobulbar sinus and hearts were excised.
Serum samples were centrifuged for 15 min (1000 × g) at 4 °C and analyzed using a mouse cardiac Troponin I Type 3 ELISA kit (Novus Biologicals, NBP3–00456), according to the manufacturer’s instructions. Briefly, a 96-well microplate was coated with an anti-mouse TNNI3/cTnI primary antibody (Capture Antibody Solution). Standard solution or samples (100 μL) were added to the plate and incubated for 90 min at 37 °C. A biotinylated anti-mouse TNNI3/cTnI detection antibody was added, and the plate was incubated for 1 h at 37 °C followed by 3 washes with Wash Buffer. An avidin–horseradish peroxidase conjugate (Detection Antibody Solution) was then added, and the plate was incubated once more for 30 min at 37 °C. After 3 washes with Wash Buffer, Substrate Reagent was added. Following incubation for 15 min at 37 °C, the enzymatic reaction was terminated by the addition of Stop Solution. Sample optical densities at 450 nm were converted to […] concentrations of mouse TNNI3/cTnI using a calibration curve.

iAMs = assay: Bulk RNA sequencing of cardiomyogenically differentiated iAMs; format: cell-based, rat; conditions: EF-1 32 µM, 16 h, log2-fold change ≥0.58, P adj <0.05
Method: iAMs were seeded at a density of 6 ×10^6 cells/mL in differentiation medium in 75-cm^2 cell culture flasks (Greiner Bio-One, 658175) and incubated for 9 days (d0 = day of seeding). HCF were seeded at a density of 3 × 10^6 cells/mL in fibroblast medium in 75-cm^2 cell culture flasks. […] Next, cells were lysed using 350 µL buffer RLT (Qiagen) supplemented with β-mercaptoethanol (100:1; Merck, 444203). Total RNA was isolated using the RNeasy Micro Kit (Qiagen, 74104) according to the manufacturer’s protocol, with an extra step of DNase digestion. The concentration and quality of RNA were determined using a Qubit fluorometer (Thermo Fisher Scientific) and 2100 Agilent BioAnalyzer (Agilent Technologies), respectively. Samples with an RNA integrity number >7 were used for library preparation. Sequencing libraries were prepared by Genewiz/Azenta (Leipzig) on cDNA prepared from polyadenylated mRNA. Libraries were sequenced using a NovaSeq 6000 (Illumina) with a read length of 2 ×150 bp.
Gene expression was quantified at the transcript level using Salmon (v1.10.0)[60], with the validatMappings and -gcBias parameters switched on, to the Rnor_6.0 or GRCh38 transcriptome. […] Functional enrichment of DEGs was determined using a hypergeometric test against the Gene Ontology database by using the ClueGO (v2.5.7)[64] module of Cytoscape (v3.9.1)[65] with Benjamini–Hochberg adjusted (FDR) P < 0.05. […]

T1 sequence (P00533 25-1210): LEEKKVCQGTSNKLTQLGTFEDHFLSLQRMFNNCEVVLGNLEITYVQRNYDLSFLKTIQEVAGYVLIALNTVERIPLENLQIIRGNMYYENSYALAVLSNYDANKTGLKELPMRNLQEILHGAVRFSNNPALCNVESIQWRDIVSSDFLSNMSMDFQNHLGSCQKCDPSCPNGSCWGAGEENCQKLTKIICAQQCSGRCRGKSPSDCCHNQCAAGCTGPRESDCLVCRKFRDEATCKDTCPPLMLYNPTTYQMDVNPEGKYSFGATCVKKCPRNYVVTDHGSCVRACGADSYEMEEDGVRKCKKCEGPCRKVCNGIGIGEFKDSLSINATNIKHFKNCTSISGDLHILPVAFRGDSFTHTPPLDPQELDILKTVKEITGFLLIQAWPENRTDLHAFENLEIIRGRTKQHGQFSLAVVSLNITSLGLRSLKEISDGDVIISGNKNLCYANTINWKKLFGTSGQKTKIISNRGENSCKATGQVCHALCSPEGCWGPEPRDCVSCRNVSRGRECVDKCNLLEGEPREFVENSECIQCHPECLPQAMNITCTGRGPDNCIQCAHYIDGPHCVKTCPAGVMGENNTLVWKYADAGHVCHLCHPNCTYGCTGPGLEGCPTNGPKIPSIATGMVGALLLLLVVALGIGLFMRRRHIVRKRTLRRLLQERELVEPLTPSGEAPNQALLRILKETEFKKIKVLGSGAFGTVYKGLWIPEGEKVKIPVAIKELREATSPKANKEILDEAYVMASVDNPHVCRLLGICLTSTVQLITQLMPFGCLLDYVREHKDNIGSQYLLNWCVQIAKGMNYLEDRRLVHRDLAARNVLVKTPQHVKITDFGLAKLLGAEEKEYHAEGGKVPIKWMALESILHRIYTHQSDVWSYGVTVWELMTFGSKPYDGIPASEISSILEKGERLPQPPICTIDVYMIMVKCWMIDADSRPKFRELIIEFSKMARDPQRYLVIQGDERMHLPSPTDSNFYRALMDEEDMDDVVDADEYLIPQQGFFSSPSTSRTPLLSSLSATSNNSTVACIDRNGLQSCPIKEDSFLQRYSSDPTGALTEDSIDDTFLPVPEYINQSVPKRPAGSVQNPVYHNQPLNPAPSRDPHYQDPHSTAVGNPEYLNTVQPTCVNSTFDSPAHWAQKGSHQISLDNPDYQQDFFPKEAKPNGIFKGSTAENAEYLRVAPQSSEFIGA
T1 sequence (P00533 25-1210): as above

O=C(NC1CC1)C(Sc1nc2ccccc2c(=O)n1C1CCCC1)c1ccccc1 (centres unmarked) [EF-1]
EC50 (ERBB1/ERBB1): > 32 µM
ERBB1/ERBB1 dimerization signal (ERBB1/ERBB1; 3.125e-8 M): 0
ERBB1/ERBB1 dimerization signal (ERBB1/ERBB1; 6.25e-8 M): 8.38 and 6.13 and 6.6 and 7.02 and 4.04 and 2.46
ERBB1/ERBB1 dimerization signal (ERBB1/ERBB1; 1.25e-7 M): 4.23 and 2.21 and 2.75 and 1.65 (2×) and 1.93
ERBB1/ERBB1 dimerization signal (ERBB1/ERBB1; 2.5e-7 M): 5.73 and 2.08 and 2.79 and 4.91 and 2.29 and 1.1
ERBB1/ERBB1 dimerization signal (ERBB1/ERBB1; 5e-7 M): 5.49 and 1.35 and 1.39 and 3.65 and 1.57 and 0.45
ERBB1/ERBB1 dimerization signal (ERBB1/ERBB1; 1e-6 M): 6.08 and 3.69 and 2.97 and 5.23 and 2.17 and 1.53
ERBB1/ERBB1 dimerization signal (ERBB1/ERBB1; 2e-6 M): 8.8 and 4.67 and 6.18 and 5.92 and 4.48 and 3.39
ERBB1/ERBB1 dimerization signal (ERBB1/ERBB1; 4e-6 M): 15.68 and 13.03 and 10.62 and 10.47 and 7.22 and 7.25
ERBB1/ERBB1 dimerization signal (ERBB1/ERBB1; 8e-6 M): 28.31 and 23.51 and 19.8 and 20.63 and 14.67 and 14.01
ERBB1/ERBB1 dimerization signal (ERBB1/ERBB1; 1.6e-5 M): 47.08 and 37.9 and 37.11 and 43.5 and 44.59 and 32.06
ERBB1/ERBB1 dimerization signal (ERBB1/ERBB1; 3.2e-5 M): 67.98 and 64.53 and 62.88 and 78.66 and 59.73 and 53.27
In vivo DOX experiment in female wild type mice with EF-1 (cTnI) ([1]; female wild type mice, DOX/EF-1 group, individual animals, Fig. 6b): 8.09 and 3.543 and 6.879 and 1.657 and 7.427 and 2.8057 and 6.224 and 3.861
effect on DOX-induced increase in circulating cTnI plasma levels (in words) ([1]; female wild type mice, EF-1 2 mg/kg, 7 days, DOX 20 mg/kg IP day 4): significantly prevented the DOX-induced increase in circulating cTnI plasma levels
In vivo DOX experiment in fmale wild type mice with EF-1 (cTnI) ([1]; fmale wild type mice, DOX/EF-1 group, individual animals, Fig. 6c): 273.659 and 148.181 and 198.844 and 244.235 and 228.218 and 232.739 and 226.672 and 236.453 and 259.198
number of significantly downregulated genes compared to Veh (iAMs): 1120
number of significantly upregulated genes compared to Veh (iAMs): 354
